Drawing on BindingDB's records for doi:10.7270/Q2JQ0ZF7 (Nmmlsc, 2009), this text covers EC50 for 51 molecules.

One assay deals with T1, GTPase KRas [1-37] (Homo sapiens, UniProt G3V5T7).
T1 construct: 1-37
T1 sequence (G3V5T7 whole entry): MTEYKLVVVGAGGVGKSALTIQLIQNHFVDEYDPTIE
Kind of assay: blockade of Bodipy-GTP loading onto wild-type Ras – biochemical, oxadiazole analogs, multiplex bead flow cytometry, SAR follow-up (AID 2053).
Conditions: not given
The term EC50 denotes the concentration that produces a half-maximal response. A low value points to greater potency. `COc1ccc(-c2cc(CCC(=O)N3CCN(c4cc(C)ccc4C)CC3)[nH]n2)cc1` [UNM-0000306150] came in with an EC50 of more than 30 µM.

As to `Cc1ccc(C)c(N2CCN(C(=O)CCc3nc(-c4ccccc4C(F)(F)F)no3)CC2)c1`, the EC50 is more than 30 µM.

In the case of `COc1ccc(-c2noc(CCC(=O)N3CCN(c4cccc(C)c4)CC3)n2)cc1` [UNM-0000306125], the EC50 was more than 30 µM.

Molecule `COc1ccc(-c2noc(CCC(=O)N3CCN(c4ccccc4C)CC3)n2)cc1` displayed an EC50 of more than 30 µM.

Molecule `COc1ccc(-c2noc(CCC(=O)N3CCN(c4cccc(C)c4C)CC3)n2)cc1` [1-[4-(2,3-dimethylphenyl)-1-piperazinyl]-3-[3-(4-methoxyphenyl)-1,2,4-oxadiazol-5-yl]-1-propanone] displayed an EC50 of more than 30 µM.

In turn, `COc1ccc(-c2noc(CCC(=O)N3CCN(c4ccc(Br)cc4)CC3)n2)cc1` [1-[4-(4-bromophenyl)piperazin-1-yl]-3-[3-(4-methoxyphenyl)-1,2,4-oxadiazol-5-yl]propan-1-one] showed an EC50 of more than 30 µM.

Molecule `Cc1ccc(C)c(N2CCN(C(=O)CCc3nc(-c4ccccc4Cl)no3)CC2)c1` [3-[3-(2-chlorophenyl)-1,2,4-oxadiazol-5-yl]-1-[4-(2,5-dimethylphenyl)-1-piperazinyl]-1-propanone] came in with an EC50 of more than 30 µM.

Take `Cc1ccc(C)c(N2CCN(C(=O)CCc3nc(-c4cccc(C(F)(F)F)c4)no3)CC2)c1` [KUC103380N]: the EC50 was more than 30 µM.

As for `Cc1ccc(C)c(N2CCN(C(=O)CCc3nc(-c4ccccc4F)no3)CC2)c1` [KUC103401N], the EC50 was more than 30 µM.

Molecule `COc1ccc(-c2noc(CCC(=O)N3CCN(c4ccccc4Br)CC3)n2)cc1` [KUC103370N] had an EC50 of more than 30 µM.

`COc1ccc(-c2noc(CCC(=O)N3CCN(c4ccccc4OC)CC3)n2)cc1` [3-[3-(4-methoxyphenyl)-1,2,4-oxadiazol-5-yl]-1-[4-(2-methoxyphenyl)-1-piperazinyl]-1-propanone] displayed an EC50 of more than 30 µM.

`COc1ccc(-c2noc(CCC(=O)N3CCN(c4cccc(OC)c4)CC3)n2)cc1` [KUC103349N] returned an EC50 of more than 30 µM.

`COc1ccc(-c2ccc(CCC(=O)N3CCN(c4cc(C)ccc4C)CC3)s2)cc1` had an EC50 of more than 30 µM.

In the case of `Cc1ccc(C)c(N2CCN(C(=O)CCc3nc(-c4cccc(F)c4)no3)CC2)c1` [KUC103366N], the EC50 is more than 30 µM.

As for `COc1ccc(-c2noc(CCC(=O)N3CCN(c4ccc(Cl)cc4)CC3)n2)cc1` [UNM-0000306121], the EC50 was more than 30 µM.

`Cc1cccc(-c2noc(CCC(=O)N3CCN(c4cc(C)ccc4C)CC3)n2)c1` [1-[4-(2,5-dimethylphenyl)piperazin-1-yl]-3-[3-(3-methylphenyl)-1,2,4-oxadiazol-5-yl]propan-1-one]: the EC50 is more than 30 µM.

`Cc1ccc(C)c(N2CCN(C(=O)CCc3nc(-c4ccc(Cl)cc4)no3)CC2)c1` [UNM-0000306083] returned an EC50 of more than 30 µM.

With `COc1ccc(-c2noc(CCCC(=O)N3CCN(c4cc(C)ccc4C)CC3)n2)cc1` [KUC103353N], the EC50 is more than 30 µM.

On to `COc1ccc(-c2cccc(CCC(=O)N3CCN(c4cc(C)ccc4C)CC3)c2)cc1` [UNM-0000306127], for which the EC50 is more than 30 µM.

`Cc1ccc(C)c(N2CCN(C(=O)CCc3nc(-c4ccc(C(F)(F)F)cc4)no3)CC2)c1` [1-[4-(2,5-dimethylphenyl)-1-piperazinyl]-3-[3-[4-(trifluoromethyl)phenyl]-1,2,4-oxadiazol-5-yl]-1-propanone] showed an EC50 of more than 30 µM.

The molecule `Cc1ccc(C)c(N2CCN(C(=O)CCc3nc(-c4cccc(Cl)c4)no3)CC2)c1` [UNM-0000306086] showed an EC50 of more than 30 µM.

`COc1ccc(-c2cc(CCC(=O)N3CCN(c4cc(C)ccc4C)CC3)on2)cc1` [1-[4-(2,5-dimethylphenyl)piperazin-1-yl]-3-[3-(4-methoxyphenyl)-1,2-oxazol-5-yl]propan-1-one] displayed an EC50 of more than 30 µM.

Molecule `COc1ccc(-c2coc(CCC(=O)N3CCN(c4cc(C)ccc4C)CC3)n2)cc1` [1-[4-(2,5-dimethylphenyl)piperazin-1-yl]-3-[4-(4-methoxyphenyl)-1,3-oxazol-2-yl]propan-1-one] returned an EC50 of more than 30 µM.

Take `Cc1ccc(C)c(N2CCN(C(=O)CCc3nc(-c4ccc(F)cc4)no3)CC2)c1` [KUC103364N]: the EC50 was more than 30 µM.

Molecule `COc1ccc(-c2noc(CCC(=O)N3CCN(c4ccccc4)CC3)n2)cc1` [3-[3-(4-methoxyphenyl)-1,2,4-oxadiazol-5-yl]-1-(4-phenylpiperazin-1-yl)propan-1-one] displayed an EC50 of more than 30 µM.

`COc1ccc(-c2noc(CC(=O)N3CCN(c4cc(C)ccc4C)CC3)n2)cc1` [1-[4-(2,5-dimethylphenyl)piperazin-1-yl]-2-[3-(4-methoxyphenyl)-1,2,4-oxadiazol-5-yl]ethanone] came in with an EC50 of more than 30 µM.

The molecule `COc1ccc(-c2ccc(CCC(=O)N3CCN(c4cc(C)ccc4C)CC3)[nH]2)cc1` [1-[4-(2,5-dimethylphenyl)piperazin-1-yl]-3-[5-(4-methoxyphenyl)-1H-pyrrol-2-yl]propan-1-one] yielded an EC50 of more than 30 µM.

Consider `Cc1ccc(-c2noc(CCC(=O)N3CCN(c4cc(C)ccc4C)CC3)n2)cc1` [1-[4-(2,5-dimethylphenyl)-1-piperazinyl]-3-[3-(4-methylphenyl)-1,2,4-oxadiazol-5-yl]-1-propanone], for which the EC50 is more than 30 µM.

`COc1ccc(-c2noc(CCC(=O)N3CCN(c4ccc(C)cc4)CC3)n2)cc1` [3-[3-(4-methoxyphenyl)-1,2,4-oxadiazol-5-yl]-1-[4-(4-methylphenyl)piperazin-1-yl]propan-1-one] gave a 50% effective concentration (EC50) of more than 30 µM.

For `COc1ccc(-c2noc(CCC(=O)N3CCN(c4ccc(OC)cc4)CC3)n2)cc1` [3-[3-(4-methoxyphenyl)-1,2,4-oxadiazol-5-yl]-1-[4-(4-methoxyphenyl)piperazin-1-yl]propan-1-one], the EC50 was more than 30 µM.

Take `Cc1ccc(C)c(N2CCN(C(=O)CCc3nc(-c4ccccc4C)no3)CC2)c1`: the 50% effective concentration (EC50) was more than 30 µM.

On to `COc1ccc(-c2noc(CCC(=O)N3CCC(c4cc(C)ccc4C)CC3)n2)cc1` [KUC103432N], for which the EC50 was more than 30 µM.

With `Cc1ccc(C)c(N2CCN(C(=O)CCc3nc(-c4ccc(N(C)C)cc4)no3)CC2)c1` [KUC103409N], the EC50 was more than 30 µM.

As to `COc1ccc(-c2ccc(CCC(=O)N3CCN(c4cc(C)ccc4C)CC3)o2)cc1` [KUC103447N], the EC50 was more than 30 µM.

In turn, `COc1ccc(-c2noc(CCC(=O)N3CCN(c4ccccc4C(F)(F)F)CC3)n2)cc1` [UNM-0000306082] registered an EC50 of more than 30 µM.

The molecule `COc1ccc(-c2noc(CCC(=O)N3CCN(c4ccc(F)cc4)CC3)n2)cc1` [KUC103398N] had an EC50 of more than 30 µM.

Regarding `COc1ccc(-c2noc(CCC(=O)N3CCN(c4ccc(C(F)(F)F)cc4)CC3)n2)cc1` [3-[3-(4-methoxyphenyl)-1,2,4-oxadiazol-5-yl]-1-[4-[4-(trifluoromethyl)phenyl]piperazin-1-yl]propan-1-one], the EC50 is more than 30 µM.

As to `COc1ccc(-c2noc(CCC(=O)N3CCN(c4cccc(F)c4)CC3)n2)cc1` [1-[4-(3-fluorophenyl)piperazin-1-yl]-3-[3-(4-methoxyphenyl)-1,2,4-oxadiazol-5-yl]propan-1-one], the EC50 is more than 30 µM.

Take `COc1ccccc1-c1noc(CCC(=O)N2CCN(c3cc(C)ccc3C)CC2)n1` [UNM-0000306071]: the EC50 is more than 30 µM.

As to `Cc1ccc(C)c(N2CCN(C(=O)CCc3nc(-c4cccc(Br)c4)no3)CC2)c1` [KUC103367N], the EC50 is more than 30 µM.

`COc1ccc(-c2noc(CCC(=O)N3CCN(c4cccc(Cl)c4)CC3)n2)cc1` showed an EC50 of more than 30 µM.

For `COc1ccc(-c2noc(CCC(=O)N3CCN(c4cccc(C(F)(F)F)c4)CC3)n2)cc1` [1-{3-[3-(4-methoxyphenyl)-1,2,4-oxadiazol-5-yl]propanoyl}-4-[3-(trifluoromethyl)phenyl]piperazine], the 50% effective concentration (EC50) was more than 30 µM.

On to `COc1ccc(-c2noc(CCCCC(=O)N3CCN(c4cc(C)ccc4C)CC3)n2)cc1` [1-[4-(2,5-dimethylphenyl)-1-piperazinyl]-5-[3-(4-methoxyphenyl)-1,2,4-oxadiazol-5-yl]-1-pentanone], for which the EC50 is more than 30 µM.

Still in this assay, the particulars now being: inactive by the depositor's call.
For `Cc1ccc(C)c(N2CCN(C(=O)CCc3nc(-c4ccccc4Br)no3)CC2)c1` [3-[3-(2-bromophenyl)-1,2,4-oxadiazol-5-yl]-1-[4-(2,5-dimethylphenyl)-1-piperazinyl]-1-propanone], a half-maximal effect (EC50) was put at 0.033 µM.

`COc1cccc(-c2noc(CCC(=O)N3CCN(c4cc(C)ccc4C)CC3)n2)c1` displayed an EC50 of 1.49 µM.

Turning to `Cc1ccc(C)c(N2CCN(C(=O)CCc3nc(-c4ccccc4)no3)CC2)c1` [UNM-0000306070], the midpoint of the response, the EC50, lay at 0.869 µM.

For the molecule `COc1ccc(-c2noc(CCC(=O)N3CCN(c4ccccc4F)CC3)n2)cc1` [1-[4-(2-fluorophenyl)piperazin-1-yl]-3-[3-(4-methoxyphenyl)-1,2,4-oxadiazol-5-yl]propan-1-one], the EC50 was 0.05 µM.

For the molecule `Cc1ccc(C)c(N2CCN(C(=O)CCc3nc(-c4ccc(Br)cc4)no3)CC2)c1` [UNM-0000306072], a half-maximal response (EC50) required 1.83 µM.

Take `COc1ccc(-c2noc(CCC(=O)N3CCN(c4ccccc4Cl)CC3)n2)cc1` [1-[4-(2-chlorophenyl)piperazin-1-yl]-3-[3-(4-methoxyphenyl)-1,2,4-oxadiazol-5-yl]propan-1-one]: it took 1.87 µM to reach a half-maximal effect (EC50).

Consider `COc1ccc(-c2noc(CCC(=O)N3CCN(c4cc(C)ccc4C)CC3)n2)cc1` [1-[4-(2,5-dimethylphenyl)-1-piperazinyl]-3-[3-(4-methoxyphenyl)-1,2,4-oxadiazol-5-yl]-1-propanone], for which a half-maximal response (EC50) required 1.71 µM.

On to `COc1ccc(-c2noc(CCC(=O)N3CCN(c4cccc(Br)c4)CC3)n2)cc1` [1-[4-(3-bromophenyl)-1-piperazinyl]-3-[3-(4-methoxyphenyl)-1,2,4-oxadiazol-5-yl]-1-propanone], for which the EC50 came to 0.017 µM.
